Experimental data from US20200270309A1, “MALEIMIDE GROUP-MODIFIED ANGIOGENESIS INHIBITOR HM-1 AND USE THEREOF” (NANJING ANJI BIOLOGICAL TECHNOLOGY CO., LTD, priority 2017, published 2020).
Marks after values point to notes of the source that are not given here. Peptide text beside a SMILES is read from it. * marks the point of attachment. X58 = O=C1C=CC(=O)N1c1cccc(CCCCCCCCCCCC(=O)*)c1; X74 = O=C1C=CC(=O)N1c1cccc(CCCCCCCCCCC(=O)*)c1; X54 = O=C1C=CC(=O)N1c1cccc(CCCCCCC(=O)*)c1

Experiments:
adjuvant arthritis = test: Rat adjuvant arthritis (AA) animal model; type: in vivo, SD rats; conditions: 4.0 mg/kg; for Clinical score: intravenous in the tail once every five days from day 10, four paws scored 0-4, max 16, mean±SD; for Joint swelling degree / Left and right paw swelling degree: intravenous in the tail once every five days from day 10, mean±SD
[1] = tested on: carrageenan-induced toe swelling; test: Carrageenan-induced toe swelling in rats; type: in vivo; conditions: SD rats; for Swelling degree 1 h: 1 h after carrageenan; for Swelling degree 3 h: 3 h after carrageenan; for Swelling degree 5 h: 5 h after carrageenan; for Swelling degree 7 h: 7 h after carrageenan
In short: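 Paw swelling, in mL, is the post-inflammation minus pre-inflammation volume of the right hind foot, read as overflow liquid when immersed to a pen-marked joint. Treatment was daily injection over 3 d; model group received saline of the same volume.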

[2] = tested on: corneal neovascularization; test: Corneal neovascularization induced by alkali burn in BALB/c mice; type: in vivo; design: Inhibition rate (corneal neovascularization): concentration or dose not given beside the values; conditions: day 14 after alkali burn, vitreous injection once a day for 1 week
splenic lymphocytes = test: Proliferation of splenic lymphocytes in mice (ConA, MTT); type: cell-based; conditions: ConA-stimulated mouse splenic lymphocytes, 48 h
In short: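 Proliferation read as OD 570 nm after 4 h MTT and DMSO solubilisation, five parallel wells. Before that, ConA-stimulated splenic lymphocytes from mice, 5×10^6 cells/mL in 10% calf serum RPMI 1640, were cultured 48 h at 37° C. with different peptide concentrations; controls were blank, ConA alone and dexamethasone.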

[3] = tested on: human retinal capillary endothelial cells (HRCECs); test: MTT proliferation inhibition on HRCECs; type: cell-based; conditions: 48 h; for A570 nm-A630 nm: mean±SD
In short: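 HRCECs seeded at 3.0×10^4 cells/mL, adhered overnight, then exposed to polypeptide for 48 h at 37 °C, 5% CO2. MTT added 4 h, formazan dissolved in DMSO, absorbance 570/630 nm; PIR (%) = 1 − treated/negative control, mean±SD of three independent runs.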

[4] = tested on: choroidal neovascularization; test: Choroidal neovascularization in rats (laser photocoagulation, FFA); type: in vivo; conditions: BN rats
In short: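 Male BN rats aged 6-8 weeks were given 8 krypton-laser spots around the optic disc (647.1 nm, 350 mW, 50 μm, 0.05 s). Once the model was confirmed, groups of 5 got daily intravitreal compound at 0.05 μM or saline for 1 week. FFA followed at 3, 7, 14 and 28 days after dosing.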

[5] = day 3 after administration, total light spot number was 297, 0.05 μM in the vitreous chamber once a day for 1 week
[6] = day 7 after administration, total light spot number was 186, 0.05 μM in the vitreous chamber once a day for 1 week
[7] = day 14 after administration, total light spot number was 137, 0.05 μM in the vitreous chamber once a day for 1 week
[8] = day 28 after administration, total light spot number was 69, 0.05 μM in the vitreous chamber once a day for 1 week

SMILES	Clinical score (adjuvant arthritis)	Joint swelling degree (adjuvant arthritis) [mm]	Left and right paw swelling degree (adjuvant arthritis) [mm]	Swelling degree 1 h ([1]; 2.0 mg/kg once a day for 3 d) [mg]	Swelling degree 3 h ([1]; 2.0 mg/kg once a day for 3 d) [mg]	Swelling degree 5 h ([1]; 2.0 mg/kg once a day for 3 d) [mg]	Swelling degree 7 h ([1]; 2.0 mg/kg once a day for 3 d) [mg]	Swelling degree 1 h ([1]; 4.0 mg/kg once a day for 3 d) [mg]	Swelling degree 3 h ([1]; 4.0 mg/kg once a day for 3 d) [mg]	Swelling degree 5 h ([1]; 4.0 mg/kg once a day for 3 d) [mg]	Swelling degree 7 h ([1]; 4.0 mg/kg once a day for 3 d) [mg]	Inhibition rate (corneal neovascularization) [2] [%]	MVD (corneal microvessel density) [2]	A570 nm/A630 nm (splenic lymphocytes; polypeptide dose 0.05 μM)	Inhibition rate (%) (splenic lymphocytes; polypeptide dose 0.05 μM)	A570 nm/A630 nm (splenic lymphocytes; polypeptide dose 0.1 μM)	Inhibition rate (%) (splenic lymphocytes; polypeptide dose 0.1 μM)	A570 nm/A630 nm (splenic lymphocytes; polypeptide dose 0.2 μM)	Inhibition rate (%) (splenic lymphocytes; polypeptide dose 0.2 μM)	Inhibition rate (%) ([3]; dose 0.05 μM) [%*]	other results
C[C@H](NC(=O)CNC(=O)[C@H](CCCNC(=N)N)NC(=O)CCCCCCCCCCc1cccc(N2C(=O)C=CC2=O)c1)C(=O)N[C@@H](CC(=O)O)C(=O)N[C@@H](CCCNC(=N)N)C(=O)N[C@@H](C)C(=O)NCC(=O)NCC(=O)NCC(=O)NCC(=O)N[C@@H](CCCNC(=N)N)C(=O)NCC(=O)N[C@@H](CC(=O)O)C(=O)O [X34] (X74-RGADRAGGGGRGD-OH)	5.66 ± 1.09	0.83 ± 0.17	3.84 ± 0.88	0.26 ± 0.18	0.38 ± 0.13	0.39 ± 0.11	0.35 ± 0.14	0.22 ± 0.18	0.38 ± 0.15	0.36 ± 0.16	0.34 ± 0.13	48.36	34.72 ± 6.051	0.5469 ± 0.0655	19.03	0.4573 ± 0.1104	32.29	0.4431 ± 0.1192	34.39	50.55	A570 nm-A630 nm ([3]; dose 0.05 μM): 0.6536 ± 0.08102; Inhibition rate (%) ([3]; dose 0.1 μM): 51.43%**; A570 nm-A630 nm ([3]; dose 0.1 μM): 0.6420 ± 0.08726; Inhibition rate (%) ([3]; dose 0.2 μM): 59.92%*; A570 nm-A630 nm ([3]; dose 0.2 μM): 0.5298 ± 0.07541; CNV Incidence (%) [4, 5]: 52.19%; Leakage Light spot number [4, 5]: 155; CNV Incidence (%) [4, 6]: 47.31%; Leakage Light spot number [4, 6]: 88; CNV Incidence (%) [4, 7]: 45.99%; Leakage Light spot number [4, 7]: 63; CNV Incidence (%) [4, 8]: 42.03%; Leakage Light spot number [4, 8]: 29
C[C@H](NC(=O)CNC(=O)[C@H](CCCNC(=N)N)NC(=O)CCCCCCc1cccc(N2C(=O)C=CC2=O)c1)C(=O)N[C@@H](CC(=O)O)C(=O)N[C@@H](CCCNC(=N)N)C(=O)N[C@@H](C)C(=O)NCC(=O)NCC(=O)NCC(=O)NCC(=O)N[C@@H](CCCNC(=N)N)C(=O)NCC(=O)N[C@@H](CC(=O)O)C(=O)O [X30] (X54-RGADRAGGGGRGD-OH)	5.73 ± 1.05	0.82 ± 0.12	3.76 ± 0.64	0.26 ± 0.15	0.36 ± 0.18	0.40 ± 0.16	0.35 ± 0.11	0.25 ± 0.19	0.33 ± 0.13	0.39 ± 0.18	0.34 ± 0.15	47.13	35.55 ± 5.717	0.5725 ± 0.0671	15.24	0.4914 ± 0.0652	27.24	0.4759 ± 0.0702	29.54	42.46	A570 nm-A630 nm ([3]; dose 0.05 μM): 0.7605 ± 0.00513; Inhibition rate (%) ([3]; dose 0.1 μM): 60.14%**; A570 nm-A630 nm ([3]; dose 0.1 μM): 0.5268 ± 0.06831; Inhibition rate (%) ([3]; dose 0.2 μM): 65.82%*; A570 nm-A630 nm ([3]; dose 0.2 μM): 0.4517 ± 0.03378; CNV Incidence (%) [4, 5]: 51.85%; Leakage Light spot number [4, 5]: 154; CNV Incidence (%) [4, 6]: 48.92%; Leakage Light spot number [4, 6]: 91; CNV Incidence (%) [4, 7]: 45.99%; Leakage Light spot number [4, 7]: 63; CNV Incidence (%) [4, 8]: 40.58%; Leakage Light spot number [4, 8]: 28
C[C@H](NC(=O)CNC(=O)[C@H](CCCNC(=N)N)NC(=O)CCCCCCCCCCCc1cccc(N2C(=O)C=CC2=O)c1)C(=O)N[C@@H](CC(=O)O)C(=O)N[C@@H](CCCNC(=N)N)C(=O)N[C@@H](C)C(=O)NCC(=O)NCC(=O)NCC(=O)NCC(=O)N[C@@H](CCCNC(=N)N)C(=O)NCC(=O)N[C@@H](CC(=O)O)C(=O)O [X35] (X58-RGADRAGGGGRGD-OH)	5.83 ± 1.07	0.85 ± 0.13	3.78 ± 0.56	0.25 ± 0.11	0.38 ± 0.16	0.38 ± 0.19	0.33 ± 0.15	0.23 ± 0.11	0.36 ± 0.16	0.44 ± 0.14	0.32 ± 0.12	44.60	37.25 ± 4.806	0.6122 ± 0.1219	9.36	0.5261 ± 0.0617	22.11	0.4415 ± 0.0616	34.63	43.91	A570 nm-A630 nm ([3]; dose 0.05 μM): 0.7413 ± 0.08995; Inhibition rate (%) ([3]; dose 0.1 μM): 56.72%**; A570 nm-A630 nm ([3]; dose 0.1 μM): 0.5720 ± 0.01284; Inhibition rate (%) ([3]; dose 0.2 μM): 57.45%*; A570 nm-A630 nm ([3]; dose 0.2 μM): 0.5624 ± 0.01279; CNV Incidence (%) [4, 5]: 52.19%; Leakage Light spot number [4, 5]: 155; CNV Incidence (%) [4, 6]: 47.85%; Leakage Light spot number [4, 6]: 89; CNV Incidence (%) [4, 7]: 46.72%; Leakage Light spot number [4, 7]: 64; CNV Incidence (%) [4, 8]: 44.93%; Leakage Light spot number [4, 8]: 31
